Results on two compounds are retold here after patent US20090253789A1, “Preventive/Remedy for Arteriosclerotic Disease and Method of Evaluating Therapeutic Procedure” (Takeda Pharmaceutical Company Limited, priority 2006, published 2009).

The conditions of experiment [1]: clinical test; cited from earlier work.
For experiment [2], the system named is atherosclerotic lesion. Conditions: pre-clinical tests; accompanied with reduction in plasma cholesterol level; cited from earlier work.
Experiment [3] can be described thus: Anti-atherosclerotic activity test in WHHL rabbit: plasma total cholesterol exposure amount. The format is in vivo. Conditions: for Plasma total cholesterol exposure amount during administration period: average ± standard error, control 6194 ± 511, no significant difference (Williams' test). The protocol:
(§1) Using 7-month-old WHHL rabbits, the compound X (3, 10 mg/kg/day) was orally administered once a day for 12 weeks and influence on atherosclerosis was examined. Before drug administration, aortic atherosclerosis was tested by intravascular ultrasound (IVUS), and WHHL rabbits were grouped based on the aortic atherosclerosis, plasma cholesterol level and sex.
(§2) Before initiation of administration, and 1, 2, 4, 6, 8, 10, 12 weeks from administration, blood samples were collected, a plasma total cholesterol level of each sample was measured using a biochemical automatic analysis apparatus and a plasma total cholesterol exposure amount during the administration period was obtained by a trapezoid formula. After administration, the thoracic aorta was removed, and a cholesterol ester content as an index of atherosclerosis was measured.

For experiment [4], the system named is atherosclerotic lesion. Put plainly: Anti-atherosclerotic activity test in WHHL rabbit: cholesterol ester content of thoracic aorta. The format is in vivo. The method, then:
as §1, §2

A further experiment addresses T1, ACAT (Oryctolagus cuniculus, UniProt A0A5F9CPP4).
T1 construct: to obtain a homogenate, which was used as an “atherosclerotic lesion sample” for a biochemical measurement; from tissue; host or cells: aortic atherosclerotic lesion tissue homogenate of WHHL rabbits dosed orally for 3 days
T1 sequence (A0A5F9CPP4 1-555): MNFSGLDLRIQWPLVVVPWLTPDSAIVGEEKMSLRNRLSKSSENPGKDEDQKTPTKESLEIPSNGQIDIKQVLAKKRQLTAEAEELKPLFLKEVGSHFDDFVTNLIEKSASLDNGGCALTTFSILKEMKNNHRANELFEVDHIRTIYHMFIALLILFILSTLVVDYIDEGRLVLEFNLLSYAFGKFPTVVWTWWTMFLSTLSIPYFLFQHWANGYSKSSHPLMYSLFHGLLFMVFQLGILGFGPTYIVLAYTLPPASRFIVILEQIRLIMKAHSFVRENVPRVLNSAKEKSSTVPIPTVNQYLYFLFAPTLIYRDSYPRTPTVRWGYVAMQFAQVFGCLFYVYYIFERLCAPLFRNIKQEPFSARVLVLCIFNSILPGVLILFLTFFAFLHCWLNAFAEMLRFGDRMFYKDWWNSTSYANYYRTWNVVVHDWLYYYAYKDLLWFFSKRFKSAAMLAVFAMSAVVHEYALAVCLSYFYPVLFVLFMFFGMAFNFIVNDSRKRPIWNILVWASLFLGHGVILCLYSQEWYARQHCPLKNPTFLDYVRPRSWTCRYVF
Put plainly: Atherosclerotic lesion ACAT enzyme inhibition test (3-day oral administration, lesion homogenate, correction markers). The format is in vivo, WHHL rabbit. The source says:
Using a rabbit having an atherosclerotic lesion in the aorta due to rearing with a high cholesterol diet, or due to hereditary hyperlipemia, etc., an ACAT inhibitor or a medium was orally administered once a day for 3 days. About two hours after final administration, the rabbit was anesthetized and killed by exsanguination, and the aorta was removed, frozen and stored. After thawing the frozen-stored aorta, a tissue section of an atherosclerotic lesion residing site was corrected using a biopsy trephine. […]
An ACAT reaction was measured by mixing a reaction buffer (0.19 M Tris-HCl pH 7.5, 3 mM EDTA, cholesterol 0.2 mg/ml, BSA 3 mg/ml), the aforementioned “atherosclerotic lesion sample”, and a substrate solution ([3H]Oleoyl-CoA), reacting the mixture with stirring at 37° C. for 30 minutes, fractionating a lipid fraction by thin layer chromatography, and measuring radioactivity (DPM) incorporated into a cholesteryl ester fraction with a liquid scintillation counter. Radioactivity of a blank sample (STE buffer instead of the homogenate was added) was also measured, and a value obtained by subtracting radioactivity of the blank from radioactivity of each sample was adopted as the ACAT enzyme activity. […]

In the case of `CC(C)c1cc(C(C)C)c(CC(=O)NS(=O)(=O)Oc2c(C(C)C)cccc2C(C)C)c(C(C)C)c1` [Avasimibe], in experiment [1], the anti-atherosclerotic activity entry was “no effect was observed” and the “effect on blood lipid level” value is listed as “certain effect”. The “anti-atherosclerotic activity: cholesterol ester in an atherosclerotic lesion” value in the experiment on atherosclerotic lesion [2] was “lowering a cholesterol ester in an atherosclerotic lesion”.
On to “Monopotassium bis((2E)-3-{3-[7-chloro-3-(2-{[4-fluoro-2-(trifluoromethyl)phenyl]amino}-2-oxoethyl)-6-methyl-2-oxo-2H-chromen-4-yl]phenyl}acrylate) trihydrate [compound X]”, for which the “Plasma total cholesterol exposure amount during administration period” value in experiment [3] (3 mg/kg/day orally for 12 weeks) was 5356 ± 410 mg · week/dL; in experiment [3] (10 mg/kg/day orally for 12 weeks), 4957 ± 490 mg · week/dL. Besides, the “effect on plasma total cholesterol exposure amount during the administration period (in words)” value in experiment [3] (3 and 10 mg/kg/day orally for 12 weeks) is given as “only a reduction tendency”. For the same compound, the “anti-atherosclerotic activity by long-term treatment” value in the experiment on atherosclerotic lesion [4] (3 and 10 mg/kg, long-term treatment) is listed as “clear anti-atherosclerotic activity”. Besides, the “cholesterol ester content of the thoracic aorta” value with atherosclerotic lesion [4] (3 and 10 mg/kg/day orally for 12 weeks (FIG. 10)) is “significantly reduced”. At ACAT (3 mg/kg orally once a day for 3 days, vs control group), the “inhibition of ACAT enzyme activity, LAL correction” value is recorded as “significant inhibition”. On ACAT (3 and 10 mg/kg, administration for 3 days), the “inhibition of atherosclerotic lesion ACAT activity utilizing the correction marker” value is recorded as “inhibited the atherosclerotic lesion ACAT activity of the WHHL rabbit dose-dependently”.
